Assay results reported in the supplement of paper PMC10307832.

Tests used:
Assay in all cases: relative viability (nuclei count vs DMSO), 5 days (fraction); higher = more cells survive
[1] = compound: C1=CC(=CC=C1C2=CC(=C(S2)NC(=O)N)C(=O)N)F [TPCA-1]
Summary of the method: (§1)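 Viability was defined as treated-well nuclei divided by vehicle-well nuclei, with the median taken over replicate plates. Cells from lung cancer lines sat overnight at 37 °C in 1536-well plates, received five √10-spaced library-drug doses by pinning on vehicle-anchored plates, and grew 5 days without medium change before one-step fixation, permeabilisation and Hoechst staining, 4× imaging and MetaXpress nuclear counts. Only plates with control CV under 25% and at least one doubling were kept.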

[2] = compound: C[C@]12O[C@H](C[C@]1(O)CO)n1c3ccccc3c3c4c(c5c6ccccc6n2c5c31)CNC4=O [Lestaurtinib]
Summary of the method: as §1

[3] = compound: C1/C(=C\C2=CC=CS2)/C(=O)/C(=C/C3=CC=CS3)/C1
Summary of the method: as §1

Cell Line | relative viability ([1]; 0.04 µM) | relative viability ([1]; 0.1265 µM) | relative viability ([1]; 0.4 µM) | relative viability ([1]; 1.265 µM) | relative viability ([1]; 4 µM) | relative viability ([2]; 0.005 µM) | relative viability ([2]; 0.01581 µM) | relative viability ([2]; 0.05 µM) | relative viability ([2]; 0.1581 µM) | relative viability ([2]; 0.5 µM) | relative viability ([3]; 0.2 µM) | relative viability ([3]; 0.6325 µM) | relative viability ([3]; 2 µM) | relative viability ([3]; 6.325 µM) | relative viability ([3]; 20 µM)
EBC-1 | 1.15 | 0.975 | 0.991 | 0.973 | 0.988 | 1.04 | 1.15 | 0.818 | 0.756 | 0.428 | 1.08 | 1.07 | 1.01 | 0.888 | 0.972
NCI-H1355 | 1.09 | 0.89 | 0.94 | 0.859 | 0.751 | 1.07 | 1.01 | 0.777 | 0.582 | 0.508 | 1 | 0.967 | 0.995 | 0.833 | 0.963
NCI-H838 | 1.04 | 0.863 | 0.967 | 0.755 | 0.739 | 1 | 0.986 | 0.811 | 0.58 | 0.193 | 0.97 | 0.981 | 1.04 | 0.79 | 0.904
LK-2 | 1.24 | 0.8 | 0.993 | 0.982 | 0.503 | 1.24 | 1.06 | 0.872 | 0.651 | 0.279 | 1.02 | 1 | 1.1 | 1.06 | 0.966
NCI-H1650 | 1.03 | 0.851 | 1.06 | 0.955 | 0.852 | 0.976 | 1.09 | 0.961 | 1.19 | 0.415 | 0.874 | 0.908 | 1.01 | 0.867 | 0.875
IA-LM | 1.1 | 0.923 | 0.963 | 0.812 | 0.903 | 1.11 | 1.42 | 1.28 | 1.21 | 0.557 | 1.04 | 1.01 | 0.905 | 0.91 | 0.94
NCI-H1703 | 1.24 | 0.728 | 0.911 | 0.647 | 0.832 | 0.945 | 0.749 | 0.591 | 0.272 | 0.151 | 1.19 | 1.2 | 1.01 | 0.788 | 0.958
NCI-H322M | 1.11 | 0.885 | 1.03 | 1.13 | 0.704 | 0.904 | 0.924 | 0.497 | 0.663 | 0.624 | 0.928 | 0.924 | 1.01 | 0.804 | 0.912
NCI-H661 | 0.963 | 0.858 | 0.983 | 0.961 | 0.7 | 1.01 | 0.972 | 0.964 | 0.935 | 0.439 | 1.05 | 1.03 | 0.998 | 0.903 | 0.985
NCI-H2228 | 1.09 | 0.785 | 1.16 | 0.984 | 0.666 | 1.25 | 1.11 | 0.698 | 0.483 | 0.258 | 1.01 | 0.989 | 1.15 | 0.748 | 1.1
NCI-H1395 | 1.01 | 0.916 | 1.02 | 0.811 | 0.703 | 0.886 | 1.04 | 0.759 | 0.759 | 0.462 | 0.912 | 0.876 | 1.11 | 0.833 | 0.945
NCI-H520 | 1.16 | 0.835 | 0.941 | 1.1 | 0.371 | 1.13 | 1.07 | 0.789 | 0.524 | 0.292 | 1.04 | 1.13 | 1.12 | 0.969 | 0.886
NCI-H441 | 1.22 | 0.816 | 0.882 | 0.704 | 0.425 | 1.02 | 1.05 | 0.611 | 0.61 | 0.438 | 1.14 | 1.24 | 1.14 | 0.867 | 0.995
